Counter-ions that a name gives are not always drawn.
O=C(Nc1cccc2c1C(=O)c1c-2n[nH]c1-c1ccc(C(=O)N2CCNCC2)s1)NN1CCOCC1 (as salt: TFA) [Example CXLIX, 3-(5-piperazinocarbonyl-2-thienyl)-5-(morpholinocarbamoylamino)indeno [1,2-c]pyrazol-4-one] showed a melting point of 241 °C.
O=C(Nc1cccc2c1C(=O)c1c-2n[nH]c1-c1ccc(C(=O)NN2CCCC2)s1)NN1CCOCC1 (as salt: TFA) [Example CXLVI, 3-(5-pyrrolidinoaminocarbonyl-2-thienyl)-5-(morpholinocarbamoylamino)indeno [1,2-c]pyrazol-4-one] gave a melting point of 213 °C.
For O=C(Nc1cccc2c1C(=O)c1c-2n[nH]c1-c1ccc(C(=O)NN2CCCCC2)s1)NN1CCOCC1 (as salt: TFA) [Example CXLVII, 3-(5-piperidinoaminocarbonyl-2-thienyl)-5-(morpholinocarbamoylamino)indeno [1,2-c]pyrazol-4-one], the melting point was 189 °C.
With COc1ccc(-c2[nH]nc3c2C(=O)c2c(NC(=O)Cc4ccc5c(c4)OCO5)cccc2-3)cc1 (hydrate or solvate) [Example XVII, 3-(4-methoxyphenyl)-5-((3,4-methylenedioxyphenyl)acetamido)indeno[1,2-c]pyrazol-4-one] the melting point was 297 °C.
Compound COc1ccc(-c2[nH]nc3c2C(=O)c2c(NC(=O)N[C@@H]4CCCC[C@@H]4N)cccc2-3)cc1 (relative stereo) [Example LXVII, 3-(4-methoxyphenyl)-5-((cis-2-aminocyclohexylcarbamoyl)amino)indeno[1,2-c]pyrazol-4-one] has a melting point of over 300 °C.
NC(=O)Nc1cccc2c1C(=O)c1c-2n[nH]c1-c1ccsc1 [Example C, 3-(3-thienyl)-5-(carbamoylamino)indeno[1,2-c]pyrazol-4-one] gave a melting point of over 280 °C.
Cn1ccc(-c2[nH]nc3c2C(=O)c2c(NC(=O)NN4CCOCC4)cccc2-3)c1 [Example CC, 3-(1-methyl-3-pyrrolyl)-5-(morpholinocarbamoylamino)indeno[1,2-c]pyrazol-4-one] showed a melting point of 301 °C.
CCOC(=O)c1ccc(-c2[nH]nc3c2C(=O)c2c(NC(=O)NN4CCC[C@@H]4COC)cccc2-3)s1 [Example CCI, 3-(5-carboethoxy-2-thienyl)-5-(2 (R)-(methoxymethyl)pyrrolidinocarbamoylamino)indeno[1,2-c]pyrazol-4-one] showed a melting point of 221 °C.
For CC(C)(C)OC(=O)NCCCC(=O)N1CCC(c2[nH]nc3c2C(=O)c2c(NC(=O)NN4CCOCC4)cccc2-3)CC1 [Example CCLXXVI, 3-(1-(3-(t-butoxycarbonylamino)propylcarbonyl)piperidin-4-yl)-5-(morpholinocarbamoylamino)indeno[1,2-c]pyrazol-4-one], the melting point was 73 °C.
Compound CC(C)(C)OC(=O)N1CCC(C(=O)N2CCC(c3[nH]nc4c3C(=O)c3c(NC(=O)NN5CCOCC5)cccc3-4)CC2)CC1 [Example CCLXXXI, 3-(1-((1-(t-butoxycarbonyl)piperidin-4-yl)carbonyl)piperidin-4-yl)-5-(morpholinocarbamoylamino)indeno[1,2-c]pyrazol-4-one] has a melting point of 220 °C.
In the case of CC(C)(C)OC(=O)N1CCCC(C(=O)N2CCC(c3[nH]nc4c3C(=O)c3c(NC(=O)NN5CCOCC5)cccc3-4)CC2)C1 (stereo not shown) [Example CCLXXXIX, 3-(1(1-(t-butoxycarbonyl)piperidin-3-ylcarbonyl)piperidin-4-yl)-5-(morpholinocarbamoylamino)indeno[1,2-c]pyrazol-4-one], the melting point is reported as 196 °C.
In the case of CC(C)(C)OC(=O)N[C@H]1CC[C@H](C(=O)N2CCC(c3[nH]nc4c3C(=O)c3c(NC(=O)NN5CCOCC5)cccc3-4)CC2)CC1 [Example CCLXXXVI, 3-(1-(trans-4-(t-butoxycarbonylamino)cyclohexylcarbonyl)piperidin-4-yl)-5-(morpholinocarbamoylamino)indeno[1,2-c]pyrazol-4-one], the melting point is reported as 178 °C.
Work on CC(C)(C)OC(=O)N1CCN(c2ccc(-c3[nH]nc4c3C(=O)c3c(NC(=O)NN5CCOCC5)cccc3-4)cc2)CC1 [Example CCX, 3-(4-(4-t-butoxycarbonylpiperazino)phenyl)-5-(morpholinocarbamoylamino)indeno[1,2-c]pyrazol-4-one] yielded a melting point of 242 °C.
In the case of CC(C)(C)OC(=O)Nc1ccc(C(=O)N2CCC(c3[nH]nc4c3C(=O)c3c(NC(=O)NN5CCOCC5)cccc3-4)CC2)cc1 [Example CCXCIX, 3-(1-(4-(t-butoxycarbonylamino)phenylcarbonyl)piperidin-4-yl)-5-(morpholinocarbamoylamino)indeno[1,2-c]pyrazol-4-one], the melting point is reported as 212 °C.
CC(C)(C)OC(=O)Nc1ccc(CC(=O)N2CCC(c3[nH]nc4c3C(=O)c3c(NC(=O)NN5CCOCC5)cccc3-4)CC2)cc1 [Example CCXCVI, 3-(1-(4-(t-butoxycarbonylamino)benzylcarbonyl)piperidin-4-yl)-5-(morpholinocarbamoylamino)indeno[1,2-c]pyrazol-4-one] showed a melting point of 177 °C.
Compound NC(=O)Nc1cccc2c1C(=O)c1c-2n[nH]c1-c1csc(Cl)c1 [Example CI, 3-(5-chloro-3-thienyl)-5-(carbamoylamino)indeno[1,2-c]pyrazol-4-one] has a melting point of over 300 °C.
Compound Cc1cc(-c2[nH]nc3c2C(=O)c2c(NC(N)=O)cccc2-3)c(C)s1 [Example CII, 3-(2,5-dimethyl-3-thienyl)-5-(carbamoylamino)indeno[1,2-c]pyrazol-4-one] has a melting point of over 280 °C.
In the case of NC(=O)Nc1cccc2c1C(=O)c1c-2n[nH]c1-c1ccco1 [Example CIII, 3-(2-furanyl)-5-(carbamoylamino)indeno[1,2-c]pyrazol-4-one], the melting point is reported as 278 °C.
For Cn1ccc(-c2[nH]nc3c2C(=O)c2c(NC(N)=O)cccc2-3)c1 [Example CXII, 3-(1-methyl-3-pyrrolyl)-5-(carbamoylamino)indeno[1,2-c]pyrazol-4-one], the melting point was over 300 °C.
Work on CC(C)c1[nH]nc2c1C(=O)c1c(NC(=O)CN3CCC(C(N)=O)CC3)cccc1-2 [Example CXV, 3-(i-propyl)-5-((4-carbamoylpiperidino)acetamido)indeno [1,2-c]pyrazol-4-one] yielded a melting point of 224 °C.
For CCc1[nH]nc2c1C(=O)c1c(NC(=O)CN3CCC(CN)CC3)cccc1-2 [Example CXVII, 3-(ethyl)-5-(4-(aminomethyl)piperidinoacetamido)indeno [1,2-c]pyrazol-4-one], the melting point was 174 °C.
For CC(C)c1[nH]nc2c1C(=O)c1c(NC(=O)CN3CCC(CN)CC3)cccc1-2 [Example CXVIII, 3-(i-propyl)-5-(4-(aminomethyl)piperidinoacetamido)indeno [1,2-c]pyrazol-4-one], the melting point was 218 °C.
For CC(C)c1[nH]nc2c1C(=O)c1c(NC(=O)NN3CCN(C)CC3)cccc1-2 [Example CXXI, 3-(i-propyl)-5-((4-methylpiperazino)carbamoylamino)indeno [1,2-c]pyrazol-4-one], the melting point was 231 °C.
CCOC(=O)c1ccc(-c2[nH]nc3c2C(=O)c2c(NC(=O)NN4CCN(C)CC4)cccc2-3)s1 [Example CXXII, 3-(5-carboethoxy-2-thienyl)-5-((4-methylpiperazino)carbamoylamino)indeno [1,2-c]pyrazol-4-one] showed a melting point of 249 °C.
CN1CCN(NC(=O)Nc2cccc3c2C(=O)c2c-3n[nH]c2-c2ccc(C(=O)O)s2)CC1 [Example CXXIII, 3-(5-carboxyl-2-thienyl)-5-((4-methylpiperazino)carbamoylamino)indeno [1,2-c]pyrazol-4-one] showed a melting point of 270 °C.

Reference: patent US6407103B2, “Indeno [1,2-c] pyrazol-4-ones and their uses” (Bristol-Myers Squibb Pharma Company, priority 1998, dated 2002)
